Reference: patent US4110327A, “2,3 Diketo-piperazinocarbonylamino alkanoic acids and derivatives” (Toyama Chemical Co., Ltd., priority 1974, dated 1978)
≈ marks a conversion by molar mass, not a printed value.

Columns and labels:
[1] = system: Shigella sonnei; test: MIC against clinical isolates; type: cell-based; settings: unit assumed
Protocol: (§1) The minimum inhibitory concentrations (MIC) was determined by the plate method disclosed in "Chemotherapy" (Japan), Vol. 16, (1968), pages 98 - 99. The culture medium used was a Heart infusion agar (pH 7.4). The number of the cells per plate used in the inoculum as 10^4 (10^6 cells/ml).
(§2) MIC was determined in the same manner as in the preceding paragraph (1).

[2] = system: Shigella flexneri; test: MIC against clinical isolates; type: cell-based; settings: unit assumed
Protocol: as §1, §2

[3] = system: Proteus vulgaris; test: MIC against clinical isolates; type: cell-based; settings: clinical isolate, unit assumed
[4] = system: Klebsiella pneumoniae; test: MIC against clinical isolates; type: cell-based; settings: unit assumed
[5] = system: Proteus mirabilis; test: MIC against clinical isolates; type: cell-based; settings: clinical isolate, unit assumed
[6] = system: Salmonella typhi; test: MIC against clinical isolates; type: cell-based; settings: unit assumed
[7] = system: Pseudomonas aeruginosa I.F.O.; test: MIC against standard strain, plate method; type: cell-based; settings: unit assumed
Summary of the method: (§3)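 MIC values come from the plate method on heart infusion agar at pH 7.4, with each plate receiving 10^4 cells from a 10^6 cells/ml suspension.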

[8] = system: Escherichia coli NIHJ; test: MIC against standard strain, plate method; type: cell-based; settings: unit assumed
Summary of the method: as §3

[9] = system: Proteus vulgaris 3027; test: MIC against standard strain, plate method; type: cell-based; settings: Proteus vulgaris 3027, standard strain; unit assumed
Summary of the method: as §3

[10] = system: Staphylococcus aureus 209p; test: MIC against standard strain, plate method; type: cell-based; settings: unit assumed
Summary of the method: as §3

[11] = system: Staphylococcus aureus; test: MIC against clinical isolates; type: cell-based; settings: unit assumed
[12] = system: Pseudomonas aeruginosa; test: MIC against clinical isolates; type: cell-based; settings: unit assumed
[13] = system: Proteus rettgeri; test: MIC against clinical isolates; type: cell-based; settings: clinical isolate, unit assumed
[14] = system: Proteus morganii; test: MIC against clinical isolates; type: cell-based; settings: clinical isolate, unit assumed
[15] = system: Escherichia coli; test: MIC against clinical isolates; type: cell-based; settings: unit assumed
[16] = system: Salmonella typhi-murium; test: MIC against clinical isolates; type: cell-based; settings: unit assumed
[17] = system: β-lactamase; test: Resistant activity against β-lactamase, iodometric assay; type: biochemical, Pseudomonas aeruginosa GN 238; settings: relative to Potassium Penicillin G = 100
Protocol: (3) Resistant activity against β-lactamase, Pseudomonas aergionan GN 238:
The resistant activity of each compound against β-lactamase was measured in the manner described below.
β-Lactamase was prepared from Pseudomonas aeruginosa GN 238. This microorganism was cultured in 100 ml of a medium containing 2 g of yeast extract, 10 g of polypeptone, 2 g of glucose, 7 g of disodium hydrogen phosphate, 2 g of potassium dihydrogen phosphate, 1.2 g of ammonium sulfate and 0.4 g of magnesium sulfate, per liter, in a 500-ml Erlenmeyer flask for 6 hrs. at 37° C with shaking. The resulting cells were collected by centrifugation (5,000 r.p.m. × 10 min.), washed three times with 0.1 M phosphate buffer (pH 7.0). Subsequently, the cells were subjected to sonication (20 KHz, 20 min.) and then centrifuged at 15,000 r.p.m. for 60 min. By using the supernatant of enzyme fluid, the resistance of each compound against β-lactamase was determined by the iodometric assay method. Each numeral shown in Table 7 is a relative activity value calculated by assuming as 100 the activity of the control Potassium Penicillin G.

[18] = system: Klebsiella pneumoniae; test: MIC against standard strain, plate method; type: cell-based; settings: unit assumed
Summary of the method: as §3

[19] = clinical isolate GN (number not given; Table 5-3)

SMILES: CCCN1CCN(C(=O)N[C@@H](C(=O)N[C@@H]2C(=O)N3[C@@H]2SC(C)(C)[C@@H]3C(=O)O)c2ccccc2)C(=O)C1=O (single isomer, unassigned) [compound 38]
- MIC ([1]; clinical isolate JS 11232): 50 µg/mL (≈ 94.1 µM)
- MIC ([2]; clinical isolate JS 11215): 25 µg/mL (≈ 47 µM)
- MIC [3]: < 0.4 µg/mL
- MIC ([4]; clinical isolate GN 3850): 6.25 µg/mL (≈ 11.8 µM)
- MIC ([4]; clinical isolate GN 4081): 50 µg/mL (≈ 94.1 µM)
- MIC ([4]; clinical isolate GN 4117): 50 µg/mL (≈ 94.1 µM)
- MIC [5]: < 0.4 µg/mL
- MIC ([6]; clinical isolate SL 819): 1.57 µg/mL (≈ 2.95 µM)
- MIC ([6]; clinical isolate SL 2169): 0.79 µg/mL (≈ 1.49 µM)
- MIC [7]: 6.25 µg/mL (≈ 11.8 µM)
- MIC [8]: < 0.1 µg/mL
- MIC [9]: 0.4 µg/mL (≈ 0.752 µM)
- MIC [10]: 0.4 µg/mL (≈ 0.752 µM)
- MIC ([11]; clinical isolate F-1): 6.25 µg/mL (≈ 11.8 µM)
- MIC ([11]; clinical isolate F-3): 0.79 µg/mL (≈ 1.49 µM)
- MIC ([11]; clinical isolate F-4): 6.25 µg/mL (≈ 11.8 µM)
- MIC ([11]; clinical isolate F-5): > 200 µg/mL
- MIC ([11]; clinical isolate MS 8619): 0.79 µg/mL (≈ 1.49 µM)
- MIC ([11]; clinical isolate MS 8713): 6.25 µg/mL (≈ 11.8 µM)
- MIC ([12]; clinical isolate GN 221): 6.25 µg/mL (≈ 11.8 µM)
- MIC ([12]; clinical isolate GN 383): 6.25 µg/mL (≈ 11.8 µM)
- MIC ([12]; clinical isolate GN 1035): 12.5 µg/mL (≈ 23.5 µM)
- MIC ([12]; clinical isolate GN 2565): 12.5 µg/mL (≈ 23.5 µM)
- MIC ([12]; clinical isolate GN 2987): 6.25 µg/mL (≈ 11.8 µM)
- MIC [12, 19]: 6.25 µg/mL (≈ 11.8 µM)
- MIC ([12]; clinical isolate S-1): 12.5 µg/mL (≈ 23.5 µM)
- MIC ([12]; clinical isolate S-2): 12.5 µg/mL (≈ 23.5 µM)
- MIC ([12]; clinical isolate S-3): 12.5 µg/mL (≈ 23.5 µM)
- MIC ([12]; clinical isolate S-4): 12.5 µg/mL (≈ 23.5 µM)
- MIC [13]: 12.5 µg/mL (≈ 23.5 µM)
- MIC [14]: < 0.4 µg/mL
- MIC ([15]; clinical isolate GN 3435): 0.79 µg/mL (≈ 1.49 µM)
- MIC ([15]; clinical isolate GN 3465): 50 µg/mL (≈ 94.1 µM)
- MIC ([15]; clinical isolate GN 3611): > 200 µg/mL
- MIC ([15]; clinical isolate K-3): > 200 µg/mL
- MIC ([15]; clinical isolate K-4): 0.79 µg/mL (≈ 1.49 µM)
- MIC ([16]; clinical isolate SL 858): 3.13 µg/mL (≈ 5.89 µM)
- MIC ([16]; clinical isolate SL 2136): 200 µg/mL (≈ 376 µM)
- Relative activity [17]: 15%

SMILES: CCCCCCN1CCN(C(=O)N[C@@H](C(=O)N[C@@H]2C(=O)N3[C@@H]2SC(C)(C)[C@@H]3C(=O)O)c2ccccc2)C(=O)C1=O (single isomer, unassigned) [compound 46]
- MIC ([1]; clinical isolate JS 11232): 12.5 µg/mL (≈ 21.8 µM)
- MIC ([1]; clinical isolate JS 11755): 0.79 µg/mL (≈ 1.38 µM)
- MIC ([2]; clinical isolate JS 11215): 6.25 µg/mL (≈ 10.9 µM)
- MIC ([2]; clinical isolate JS 11839): 0.79 µg/mL (≈ 1.38 µM)
- MIC [3]: < 0.4 µg/mL
- MIC ([4]; clinical isolate GN 917): 0.79 µg/mL (≈ 1.38 µM)
- MIC ([4]; clinical isolate GN 4081): 12.5 µg/mL (≈ 21.8 µM)
- MIC ([4]; clinical isolate GN 4117): 12.5 µg/mL (≈ 21.8 µM)
- MIC [5]: < 0.4 µg/mL
- MIC ([6]; clinical isolate SL 819): 1.57 µg/mL (≈ 2.74 µM)
- MIC ([6]; clinical isolate SL 2169): 0.79 µg/mL (≈ 1.38 µM)
- MIC [7]: 6.25 µg/mL (≈ 10.9 µM)
- MIC [18]: 0.4 µg/mL (≈ 0.697 µM)
- MIC [8]: < 0.1 µg/mL
- MIC [9]: 0.4 µg/mL (≈ 0.697 µM)
- MIC [10]: 0.2 µg/mL (≈ 0.349 µM)
- MIC ([11]; clinical isolate F-1): 6.25 µg/mL (≈ 10.9 µM)
- MIC ([11]; clinical isolate F-3): 0.79 µg/mL (≈ 1.38 µM)
- MIC ([11]; clinical isolate F-4): 6.25 µg/mL (≈ 10.9 µM)
- MIC ([11]; clinical isolate F-5): > 200 µg/mL
- MIC ([11]; clinical isolate MS 8596): 3.13 µg/mL (≈ 5.46 µM)
- MIC ([11]; clinical isolate MS 8619): < 0.4 µg/mL
- MIC ([11]; clinical isolate MS 8713): 6.25 µg/mL (≈ 10.9 µM)
- MIC ([12]; clinical isolate GN 82): 6.25 µg/mL (≈ 10.9 µM)
- MIC ([12]; clinical isolate GN 163): 6.25 µg/mL (≈ 10.9 µM)
- MIC ([12]; clinical isolate GN 221): 12.5 µg/mL (≈ 21.8 µM)
- MIC ([12]; clinical isolate GN 376): 25 µg/mL (≈ 43.6 µM)
- MIC ([12]; clinical isolate GN 383): 25 µg/mL (≈ 43.6 µM)
- MIC ([12]; clinical isolate GN 1035): 50 µg/mL (≈ 87.2 µM)
- MIC ([12]; clinical isolate GN 1091): 12.5 µg/mL (≈ 21.8 µM)
- MIC ([12]; clinical isolate GN 2565): 12.5 µg/mL (≈ 21.8 µM)
- MIC ([12]; clinical isolate GN 2987): 6.25 µg/mL (≈ 10.9 µM)
- MIC [12, 19]: 12.5 µg/mL (≈ 21.8 µM)
- MIC ([12]; clinical isolate S-1): 50 µg/mL (≈ 87.2 µM)
- MIC ([12]; clinical isolate S-2): 50 µg/mL (≈ 87.2 µM)
- MIC ([12]; clinical isolate S-3): 50 µg/mL (≈ 87.2 µM)
- MIC ([12]; clinical isolate S-4): 50 µg/mL (≈ 87.2 µM)
- MIC [13]: 3.13 µg/mL (≈ 5.46 µM)
- MIC [14]: < 0.4 µg/mL
- MIC ([15]; clinical isolate GN 3435): < 0.4 µg/mL
- MIC ([15]; clinical isolate GN 3452): 0.79 µg/mL (≈ 1.38 µM)
- MIC ([15]; clinical isolate GN 3465): 6.25 µg/mL (≈ 10.9 µM)
- MIC ([15]; clinical isolate GN 3481): 3.13 µg/mL (≈ 5.46 µM)
- MIC ([15]; clinical isolate GN 3611): > 200 µg/mL
- MIC ([15]; clinical isolate K-1): 0.79 µg/mL (≈ 1.38 µM)
- MIC ([15]; clinical isolate K-2): 0.79 µg/mL (≈ 1.38 µM)
- MIC ([15]; clinical isolate K-3): 50 µg/mL (≈ 87.2 µM)
- MIC ([15]; clinical isolate K-4): < 0.4 µg/mL
- MIC ([16]; clinical isolate SL 858): < 0.4 µg/mL
- MIC ([16]; clinical isolate SL 2136): 50 µg/mL (≈ 87.2 µM)
- Relative activity [17]: 12%
